Results reported in ChEMBL document CHEMBL5360661, “Structure-Activity Relationship Study of 1H-Pyrrole-3-carbonitrile Derivatives as STING Receptor Agonists” (ACS Med Chem Lett, 2023).
Calls of active or inactive are those of the source. The calls are words filed in the database; no cut-off is given here.

Experiments:
Homo sapiens [1] = species: Homo sapiens; experiment: (§1) Binding affinity to recombinant human STING R293Q variant C-terminal domain (139 to 378 residues) expressed in Escherichia coli BL21 (DE3) cells assessed as thermal stabilization by measuring change in melting temperature at 50 uM incubated at 25 to 95 degreeC for 45 mins by SYPRO orange dye based fluorescence analysis
Homo sapiens [2] = species: Homo sapiens; experiment: as §1, with “R232H” for “R293Q”
[3] = tested on: Stimulator of interferon genes protein (Homo sapiens), Q86WV6 [UNDEFINED MUTATION]; experiment: as §1, with “recombinant wildtype” for “recombinant”, “R232” for “R293Q”
[4] = Competitive inhibition of 5-FAM labelled diABZI binding to recombinant human STING G230A and R293Q variant C-terminal domain (139 to 378 residues) expressed in Escherichia coli BL21 (DE3) cells incubated for 10 mins by fluorescence polarization assay
[5] = target: T1, Stimulator of interferon genes protein (Homo sapiens, UniProt Q86WV6); experiment: Agonist activity at STING in PMA-differentiated wildtype human THP1-Blue ISG cells harboring IRF-inducible SEAP reporter construct incubated for 24 hrs by QUANTI-Blue assay; assay type: cell-based
Target sequence in this assay (Q86WV6 whole entry): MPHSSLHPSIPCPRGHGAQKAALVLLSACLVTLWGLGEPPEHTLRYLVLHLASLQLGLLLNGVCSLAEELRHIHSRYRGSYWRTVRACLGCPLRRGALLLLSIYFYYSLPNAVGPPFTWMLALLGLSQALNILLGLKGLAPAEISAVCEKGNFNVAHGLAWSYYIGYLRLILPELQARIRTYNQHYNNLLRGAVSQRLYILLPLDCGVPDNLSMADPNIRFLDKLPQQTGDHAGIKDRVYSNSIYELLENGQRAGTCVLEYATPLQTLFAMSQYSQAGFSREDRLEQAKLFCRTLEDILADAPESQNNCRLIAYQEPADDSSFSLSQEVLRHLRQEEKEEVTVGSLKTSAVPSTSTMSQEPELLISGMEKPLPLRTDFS

Homo sapiens [6] = species: Homo sapiens; experiment: as §1, with “STING G230A and” for “STING”
[7] = target: T2, Stimulator of interferon genes protein (Mus musculus, UniProt Q3TBT3); experiment: Competitive inhibition of 5-FAM labelled diABZI binding to recombinant 6-his tagged mouse STING C-terminal domain (144 to 378 residues) expressed in Escherichia coli BL21 (DE3) cells incubated for 10 mins by fluorescence polarization assay
T2 sequence (Q3TBT3 whole entry): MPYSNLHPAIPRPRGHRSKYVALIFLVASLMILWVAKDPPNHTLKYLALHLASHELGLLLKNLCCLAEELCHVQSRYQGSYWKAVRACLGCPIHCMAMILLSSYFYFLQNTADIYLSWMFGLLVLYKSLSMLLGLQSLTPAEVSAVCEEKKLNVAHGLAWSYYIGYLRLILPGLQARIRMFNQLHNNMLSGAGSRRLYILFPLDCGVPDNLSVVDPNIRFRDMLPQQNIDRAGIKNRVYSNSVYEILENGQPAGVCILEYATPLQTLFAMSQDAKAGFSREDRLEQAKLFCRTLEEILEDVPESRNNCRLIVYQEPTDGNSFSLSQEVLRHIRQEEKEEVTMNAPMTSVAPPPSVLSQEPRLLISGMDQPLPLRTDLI

[8] = target: T3, Stimulator of interferon genes protein (Mus musculus) (UniProt Q3TBT3); experiment: as §1, with “6-His tagged mouse” for “human”, “STING” for “STING R293Q variant”, “(144” for “(139”
T3 sequence (whole entry): T2 sequence (Q3TBT3 whole entry)

[9] = Competitive inhibition of 5-FAM labelled diABZI binding to recombinant human STING R232H variant C-terminal domain (139 to 378 residues) expressed in Escherichia coli BL21 (DE3) cells incubated for 10 mins by fluorescence polarization assay
[10] = target: T1, Stimulator of interferon genes protein; experiment: Competitive inhibition of 5-FAM labelled diABZI binding to recombinant wildtype human STING R232 variant C-terminal domain (139 to 378 residues) expressed in Escherichia coli BL21 (DE3) cells incubated for 10 mins by fluorescence polarization assay
Target sequence in this assay (Q86WV6 whole entry, looked up, stated change not applied): as the sequence (Q86WV6 whole entry) above

[11] = Competitive inhibition of 5-FAM labelled diABZI binding to recombinant human STING R293Q variant C-terminal domain (139 to 378 residues) expressed in Escherichia coli BL21 (DE3) cells incubated for 10 mins by fluorescence polarization assay
[12] = target: T1, Stimulator of interferon genes protein; experiment: Activation of cGAS-STING pathway in wildtype human THP1-Blue ISG cells assessed as induction of TBK1 phosphorylation at Ser172 residue at 15 uM incubated upto 6 hrs by Western blot analysis; assay type: cell-based; conditions: filed as activator
Target sequence in this assay (Q86WV6 whole entry): as the sequence (Q86WV6 whole entry) above

[13] = target: T1, Stimulator of interferon genes protein; experiment: Activation of cGAS-STING pathway in human THP1-Dual KO-STING cells assessed as induction of TBK1 phosphorylation at Ser172 residue at 15 uM incubated for 1 hrs by Western blot analysis; assay type: cell-based
Target sequence in this assay (Q86WV6 whole entry): as the sequence (Q86WV6 whole entry) above

[14] = target: T1, Stimulator of interferon genes protein; experiment: Activation of cGAS-STING pathway in wildtype human THP1-Blue ISG cells assessed as induction of p65 phosphorylation at Ser536 residue at 15 uM incubated upto 6 hrs by Western blot analysis; assay type: cell-based; conditions: filed as activator
Target sequence in this assay (Q86WV6 whole entry): as the sequence (Q86WV6 whole entry) above

[15] = target: T1, Stimulator of interferon genes protein; experiment: Activation of cGAS-STING pathway in wildtype human THP1-Blue ISG cells assessed as induction of STAT3 phosphorylation at Tyr705 residue at 15 uM incubated upto 6 hrs by Western blot analysis; assay type: cell-based; conditions: filed as activator
Target sequence in this assay (Q86WV6 whole entry): as the sequence (Q86WV6 whole entry) above

[16] = target: T1, Stimulator of interferon genes protein; experiment: Activation of cGAS-STING pathway in human THP1-Dual KO-cGAS cells assessed as induction of STING phosphorylation at Ser366 residue at 15 uM incubated for 1 hrs by Western blot analysis; assay type: cell-based; conditions: filed as activator
Target sequence in this assay (Q86WV6 whole entry): as the sequence (Q86WV6 whole entry) above

[17] = target: T1, Stimulator of interferon genes protein; experiment: Activation of cGAS-STING pathway in human THP1-Dual KO-cGAS cells assessed as induction of p65 phosphorylation at Ser536 residue at 15 uM incubated for 1 hrs by Western blot analysis; assay type: cell-based; conditions: filed as activator
[18] = target: T1, Stimulator of interferon genes protein; experiment: Activation of cGAS-STING pathway in wildtype human THP1-Blue ISG cells assessed as induction of STING phosphorylation at Ser366 residue at 15 uM incubated upto 6 hrs by Western blot analysis; assay type: cell-based; conditions: filed as activator
[19] = target: T1, Stimulator of interferon genes protein; experiment: Activation of cGAS-STING pathway in human THP1-Dual KO-STING cells assessed as induction of STAT3 phosphorylation at Tyr705 residue at 15 uM incubated for 1 hrs by Western blot analysis; assay type: cell-based
[20] = target: T1, Stimulator of interferon genes protein; experiment: Activation of cGAS-STING pathway in human THP1-Dual KO-STING cells assessed as induction of IRF3 phosphorylation at Ser396 residue at 15 uM incubated for 1 hrs by Western blot analysis; assay type: cell-based
[21] = target: T1, Stimulator of interferon genes protein; experiment: Activation of cGAS-STING pathway in human THP1-Dual KO-STING cells assessed as induction of STING phosphorylation at Ser366 residue at 15 uM incubated for 1 hrs by Western blot analysis; assay type: cell-based
[22] = target: T1, Stimulator of interferon genes protein; experiment: Activation of cGAS-STING pathway in human THP-1 cells assessed as stimulation of IL6 gene expression at 15 uM by RT-qPCR analysis; assay type: cell-based; conditions: filed as activator, time <= 8.0 hrs
[23] = target: T1, Stimulator of interferon genes protein; experiment: Activation of cGAS-STING pathway in wildtype human THP1-Blue ISG cells assessed as induction of IRF3 phosphorylation at Ser396 residue at 15 uM incubated upto 6 hrs by Western blot analysis; assay type: cell-based; conditions: filed as activator
[24] = target: T1, Stimulator of interferon genes protein; experiment: Activation of cGAS-STING pathway in human THP1-Dual KO-cGAS cells assessed as induction of TBK1 phosphorylation at Ser172 residue at 15 uM incubated for 1 hrs by Western blot analysis; assay type: cell-based; conditions: filed as activator
[25] = target: T1, Stimulator of interferon genes protein; experiment: Activation of cGAS-STING pathway in human THP-1 cells assessed as stimulation of IFNB1 gene expression at 15 uM by RT-qPCR analysis; assay type: cell-based; conditions: filed as activator, time <= 8.0 hrs
[26] = target: T1, Stimulator of interferon genes protein; experiment: Activation of cGAS-STING pathway in human THP1-Dual KO-cGAS cells assessed as induction of STAT3 phosphorylation at Tyr705 residue at 15 uM incubated for 1 hrs by Western blot analysis; assay type: cell-based; conditions: filed as activator
[27] = target: T1, Stimulator of interferon genes protein; experiment: Activation of cGAS-STING pathway in human THP1-Dual KO-STING cells assessed as induction of p65 phosphorylation at Ser536 residue at 15 uM incubated for 1 hrs by Western blot analysis; assay type: cell-based
[28] = target: T1, Stimulator of interferon genes protein; experiment: Activation of cGAS-STING pathway in human THP1-Dual KO-cGAS cells assessed as induction of IRF3 phosphorylation at Ser396 residue at 15 uM incubated for 1 hrs by Western blot analysis; assay type: cell-based; conditions: filed as activator
[29] = target: T1, Stimulator of interferon genes protein; experiment: Activation of cGAS-STING pathway in human THP-1 cells assessed as stimulation of CXCL10 gene expression at 15 uM by RT-qPCR analysis; assay type: cell-based; conditions: filed as activator, time <= 8.0 hrs

Sequence of Stimulator of interferon genes protein (Homo sapiens), Q86WV6 [UNDEFINED MUTATION] (Q86WV6 whole entry, looked up, stated change not applied, the tested form may be a part): as the sequence (Q86WV6 whole entry) above

N#Cc1ccn(-c2ccc(C(=O)Nc3cc(Cl)c(Cl)cc3C(=O)O)nn2)c1
ΔTm (Homo sapiens [1]): 7.5 °C
ΔTm (Homo sapiens [2]): 7.5 °C
ΔTm [3]: 6 °C
IC50 [4]: 0.76 µM
EC50 [5]: 2.99 µM
ΔTm (Homo sapiens [6]): 13.5 °C
IC50 [7]: 4.58 µM
ΔTm [8]: 6.5 °C
IC50 [9]: 2.77 µM
IC50 [10]: 2.42 µM
IC50 [11]: 2.56 µM

N#Cc1ccn(-c2ccc(C(=O)Nc3cc(Br)c(F)cc3C(=O)O)nn2)c1
ΔTm (Homo sapiens [2]): 6 °C
EC50 [5]: 4.86 µM

N#Cc1ccn(-c2ccc(C(=O)Nc3cc(Br)c(Br)cc3C(=O)O)nn2)c1
ΔTm (Homo sapiens [2]): 6.5 °C
EC50 [5]: 6.33 µM

N#Cc1ccn(-c2ccc(C(=O)Nc3cc(C#CC4CC4)c(F)cc3C(=O)O)nn2)c1
ΔTm (Homo sapiens [2]): -0.5 °C
EC50 [5]: 69.8 µM

N#Cc1ccn(-c2ccc(C(=O)Nc3cc(Br)c(Cl)cc3C(=O)O)nn2)c1
ΔTm (Homo sapiens [1]): 7.5 °C
ΔTm (Homo sapiens [2]): 8.5 °C
ΔTm [3]: 6.5 °C
IC50 [4]: 0.7 µM
EC50 [5]: 2.53 µM
ΔTm (Homo sapiens [6]): 13.5 °C
IC50 [7]: 4.36 µM
ΔTm [8]: 7 °C
IC50 [9]: 3.58 µM
IC50 [10]: 1.98 µM
IC50 [11]: 2.03 µM

O=C(Nc1cc(F)c(F)cc1C(=O)O)c1ccc(-n2ccnc2)nn1
ΔTm (Homo sapiens [1]): 7.5 °C
ΔTm (Homo sapiens [2]): 8.5 °C
IC50 [4]: 0.73 µM
ΔTm (Homo sapiens [6]): 14 °C
IC50 [7]: 2.2 µM
ΔTm [8]: 10 °C
IC50 [9]: 4.89 µM
IC50 [11]: 5.54 µM

COc1cc(NC(=O)c2ccc(-n3ccc(C#N)c3)nn2)c(C(=O)O)cc1F
ΔTm (Homo sapiens [2]): 4 °C
EC50 [5]: 9.75 µM

C#Cc1cc(NC(=O)c2ccc(-n3ccc(C#N)c3)nn2)c(C(=O)O)cc1F
ΔTm (Homo sapiens [1]): 7.5 °C
Activity [12]: Active
Activity [13]: inactive
Activity [14]: Active
Activity [15]: Active
Activity [16]: Active
Activity [17]: Active
Activity [18]: Active
Activity [19]: inactive
Activity [20]: inactive
Activity [21]: inactive
Activity [22]: Active
Activity [23]: Active
Activity [24]: Active
Activity [25]: Active
Activity [26]: Active
Activity [27]: inactive
Activity [28]: Active
ΔTm (Homo sapiens [2]): 8 °C
ΔTm [3]: 6 °C
IC50 [4]: 0.91 µM
EC50 [5]: 1.19 µM
ΔTm (Homo sapiens [6]): 13 °C
IC50 [7]: 4.72 µM
ΔTm [8]: 7.5 °C
IC50 [9]: 3.55 µM
Activity [29]: Active
IC50 [10]: 3.31 µM
IC50 [11]: 3.74 µM

C=Cc1cc(NC(=O)c2ccc(-n3ccc(C#N)c3)nn2)c(C(=O)O)cc1F
ΔTm (Homo sapiens [2]): 4.5 °C
EC50 [5]: 19.8 µM

N#Cc1ccn(-c2ccc(C(=O)Nc3ccc(F)cc3C(=O)O)nn2)c1
ΔTm (Homo sapiens [2]): 0.5 °C
EC50 [5]: > 100 µM

CC#Cc1cc(NC(=O)c2ccc(-n3ccc(C#N)c3)nn2)c(C(=O)O)cc1F
ΔTm (Homo sapiens [2]): 0.5 °C
EC50 [5]: 35 µM

N#Cc1ccn(-c2ccc(C(=O)Nc3cc(Cl)c(Br)cc3C(=O)O)nn2)c1
ΔTm (Homo sapiens [2]): 6.5 °C
EC50 [5]: 5.11 µM

N#Cc1ccn(-c2ccc(C(=O)Nc3cc(F)c(F)cc3C(=O)O)nn2)c1
ΔTm (Homo sapiens [2]): 3.5 °C

N#Cc1ccn(-c2ccc(C(=O)Nc3cc(C4CC4)c(F)cc3C(=O)O)nn2)c1
ΔTm (Homo sapiens [2]): 1 °C
EC50 [5]: 29.5 µM

N#Cc1ccn(-c2ccc(C(=O)Nc3cc(F)c(Cl)cc3C(=O)O)nn2)c1
ΔTm (Homo sapiens [2]): 1.5 °C
EC50 [5]: 42.2 µM

Cc1cc(NC(=O)c2ccc(-n3ccc(C#N)c3)nn2)c(C(=O)O)cc1F
ΔTm (Homo sapiens [2]): 1.5 °C
EC50 [5]: 46 µM

CCCn1c(NC(=O)c2cc(C)nn2C)nc2cc(C(N)=O)cc(OC3COC3)c21
ΔTm (Homo sapiens [1]): 5.5 °C
ΔTm (Homo sapiens [2]): 6 °C
ΔTm [3]: 4.5 °C
IC50 [4]: 3.66 µM
ΔTm (Homo sapiens [6]): 5 °C
IC50 [7]: 3.75 µM
ΔTm [8]: 5.5 °C
IC50 [9]: 2.78 µM
IC50 [10]: 3.16 µM
IC50 [11]: 3.82 µM

N#Cc1ccn(-c2ccc(C(=O)Nc3cc(Cl)c(F)cc3C(=O)O)nn2)c1
ΔTm (Homo sapiens [2]): 6.5 °C
EC50 [5]: 5.17 µM

CCc1cc(C(=O)O)c(NC(=O)c2ccc(-n3ccc(C#N)c3)nn2)cc1F
ΔTm (Homo sapiens [2]): 0.5 °C
EC50 [5]: 34.9 µM

N#Cc1ccn(-c2ccc(C(=O)Nc3cc(F)ccc3C(=O)O)nn2)c1
ΔTm (Homo sapiens [2]): 0 °C
EC50 [5]: 48.1 µM

COc1cc(C(=O)O)c(NC(=O)c2ccc(-n3ccc(C#N)c3)nn2)cc1F
ΔTm (Homo sapiens [2]): 0 °C
EC50 [5]: 44.3 µM

N#Cc1ccn(-c2ccc(C(=O)Nc3cc(F)c(Br)cc3C(=O)O)nn2)c1
ΔTm (Homo sapiens [2]): 1 °C
EC50 [5]: 44.2 µM
